Laboratory results from patent publication US20050148633A1 (priority 2003, published 2005).

Tests used:
TRPM4 = target: T1, TRPM4 (Homo sapiens, UniProt Q8TD43); experiment: Activation of TRPM4 channel, whole-cell patch clamp in Jurkat cells and HEK-293 cells overexpressing TRPM4; assay type: cell-based; settings: free intracellular calcium 300 nM
T1 construct: FLAG (N); expressed in transfected cells; host or cells: HEK 293 (tetracycline-induced FLAG-humanTRPM4/pCDNA4/TO); also Jurkat cells (endogenous TRPM4)
Protocol: Human leukemic T cells (Jurkat cells) and HEK 293 cells transfected with the FLAG-humanTRPM4/pCDNA4/TO construct were grown on glass coverslips with DMEM medium supplemented with 10% FBS, blasticidin (5 μg/mL) and zeocin ([…]). TRPM4 expression was induced one day before use by adding 1 μg/mL tetracycline to the culture medium and patch clamp experiments were performed 16-24 hours post-induction (for additional details see Launay et al. (2000)).
Patch clamp experiments were performed in the tight-seal whole-cell configuration at 21-25° C. High resolution current recordings were acquired by a computer-based patch clamp amplifier system (EPC-9, HEKA, Lambrecht, Germany). Patch pipettes had resistances between […] after filling with the standard intracellular solution. […] Capacitive currents and series resistance were determined and corrected before each voltage ramp using the automatic capacitance compensation of the EPC-9. The low resolution temporal development of membrane currents was assessed by extracting the current amplitude at −80 mV or +80 mV from individual ramp current records.
TRPM4 currents were measured in Jurkat cells and HEK-293 cells overexpressing TRPM4. […]

IL-2 production [1] = experiment: Inhibition of IL-2 production in PHA-activated Jurkat cells (ELISA); assay type: cell-based; settings: Homo sapiens, PHA 2.5 μg/mL, 20 hours, value bins
Protocol: Jurkat cells were placed in a 96 well plate (0.5 million cells per well in 1% FBS medium) then test compounds of this invention were added at different concentrations. After 10 minutes, the cells were activated with PHA (final concentration 2.5 μg/mL) and incubated for 20 hours at 37° C. under CO2. The final volume was 200 μL. Following incubation, the cells were centrifuged and the supernatants collected and stored at −70° C. prior to assaying for IL-2 production. A commercial ELISA kit (IL-2 Eli-pair, Diaclone Research, Besancon, France) was used to detect production of IL-2, from which dose response curves were obtained. The IC50 value was calculated as the concentration at which 50% of maximum IL-2 production after stimulation was inhibited versus a non-stimulation control.

IL-2 production [2] = experiment: IL-2 production upon PMA/ionomycin stimulation in whole blood of dosed cynomolgus monkeys; assay type: in vivo; settings: IV 5 mg/kg, 4 hours after dosing
Protocol: (§1) 3 male non-native cynomolgus monkeys were fasted overnight prior to and for four (4) hours following each dose. Each monkey was given a single intravenous dose of the appropriate test compound followed by a 1 mL rinse of saline to flush the catheter. The dose was infused over one hour using calibrated syringe pumps. Following a one week washout, the same three monkeys were given a single oral gavage dose of the appropriate test compound dose formulation followed by a 10 mL flush with tap water. Following a second one week washout, the same three monkeys received a second oral dose of the appropriate test compound dose formulation followed by a 10 mL flush with tap water. Following a third one week washout, the same three monkeys received a third oral dose of the appropriate test compound dose formulation followed by a 10 mL flush with tap water. Prior to and at 1, 2, and 4 hours following each dose (measured from the start of dosing for IV doses), blood samples ([…] for Group 1 and 2 mL/sample for Groups 2 and 3) were drawn into tubes containing sodium heparin and stored at room temperature, and the concentration of the test compounds in each sample was measured. CsA was included as a positive control.

IL-2 = experiment: Cytokine inhibition in PHA-stimulated primary human PBMCs: IL-2; assay type: cell-based; settings: PBMC
Protocol: (§2) Cytokine production was measured using commercially available human ELISA assay kits (from Cell Science, Inc.) following the manufacturers instructions.

[3] = test system: CRAC ion channel (ICRAC current); experiment: Patch clamp inhibition of ICRAC current in primary T cells; assay type: cell-based; settings: primary human T cells, varying concentrations
Protocol: Membrane currents of individual cells were recorded using the whole-cell configuration of the patch clamp technique with an EPC10 (HEKA Electronik, Lambrecht, Germany). Electrodes (2-5 MD in resistance) were fashioned from borosilicate glass capillary tubes (Sutter Instruments, Novato, Ca). The recordings were done at room temperature.
ICRAC currents were monitored every 2 seconds using a 50 msec protocol, where the voltage was ramped from −100 mV to +100 mV. The membrane potential was held at 0 mV between the test ramps. In a typical experiment the peak inward currents would develop within 50-100 seconds. Once the ICRAC currents were stabilized, the cells were perfused with compounds in the extracellular solution. At the end of an experiment the remaining ICRAC currents were then challenged with a control compound (SKF96365, 10 μM) to ensure that the current could still be inhibited.
The ICRAC current level was determined by measuring the inward current amplitude at −80 mV of the voltage ramp in an off-line analysis using MATLAB. The ICRAC current inhibition for each concentration was calculated using peak amplitude in the beginning of the experiment from the same cell. The IC50 value and Hill coefficient for each compound was estimated by fitting all the individual data points to a single Hill equation. […]

IL-4 = experiment: Cytokine inhibition in PHA-stimulated primary human PBMCs: IL-4; assay type: cell-based; settings: PBMC
Protocol: as §2

TNF-α production = TNF-α production upon PMA/ionomycin stimulation in whole blood of dosed cynomolgus monkeys; assay type: in vivo; settings: IV 5 mg/kg, 4 hours after dosing
Protocol: as §1

TNF-α = experiment: Cytokine inhibition in PHA-stimulated primary human PBMCs: TNF-α; assay type: cell-based; settings: PBMC
Protocol: as §2

INF-γ = experiment: Cytokine inhibition in PHA-stimulated primary human PBMCs: INF-γ; assay type: cell-based; settings: PBMC
Protocol: as §2

IL-10 = experiment: Cytokine inhibition in PHA-stimulated primary human PBMCs: IL-10; assay type: cell-based; settings: PBMC
Protocol: as §2

GM-CSF = experiment: Cytokine inhibition in PHA-stimulated primary human PBMCs: GM-CSF; assay type: cell-based; settings: PBMC
Protocol: as §2

IL-13 = experiment: Cytokine inhibition in PHA-stimulated primary human PBMCs: IL-13; assay type: cell-based; settings: PBMC
Protocol: as §2

[4] = test system: CRAC ion channel (ICRAC current); experiment: Patch clamp inhibition of ICRAC current in Jurkat cells; assay type: cell-based, human; settings: 1 μM compound, n=3
Protocol: In general, a whole cell patch clamp method was used to examine the effects of a compound of the invention on a channel that mediates Icrac. In such experiments, a baseline measurement was established for a patched cell. Then a compound to be tested was perfused (or puffed) to cells in the external solution and the effect of the compound on Icrac was measured. A compound that modulates Icrac (e.g., inhibits) is a compound that is useful in the invention for modulating CRAC ion channel activity.
Jurkat T cells were grown on glass coverslips, transferred to the recording chamber and kept in a standard modified Ringers solution of the following composition: NaCl 145 mM, KCl 2.8 mM, CsCl 10 mM, CaCl2 10 mM, MgCl2 2 mM, glucose 10 mM, HEPES.NaOH 10 mM, pH 7.2.
The external solution contained 10 mM CaNaR, 11.5 mM glucose and the test compound at the concentrations described below.
The standard intracellular pipette solution contained: Cs-glutamate 145 mM, NaCl 8 mM, MgCl2 1 mM, ATP 0.5 mM, GTP 0.3 mM, pH 7.2 adjusted with CsOH. […]
Patch-clamp experiments were performed in the tight-seal whole-cell configuration at 21-25° C. […] Capacitive currents and series resistance were determined and corrected before each voltage ramp using the automatic capacitance compensation of the EPC-9. […]

RBL cells = experiment: Inhibition of degranulation in RBL cells; assay type: cell-based; settings: Rattus norvegicus, anti-DNP IgE / anti-IgE, read-out: concentration at which 50% of degranulation is inhibited
Protocol: Procedure: • The day before the assay was performed, RBL cells, that had been grown to confluence in a 96 well plate, were incubated at 37° C. for at least 2 hours. The medium was replaced in each well with 100 μL of fresh medium containing of anti-DNP IgE.
On the following day, the cells were washed once with PRS (2.6 mM glucose and 0.1% BSA) and 160 μL of PRS was added to each well. The test compound was addded to a well in a 20 μL solution at 10× of the desired concentration and incubated for 20 to 40 minutes at 37° C. 20 μL of 10× mouse anti-IgE (10 μL/mL). Maximum degranulation occurred between 15 to 40 minutes after addition of anti-IgE.

IL-5 = experiment: Cytokine inhibition in PHA-stimulated primary human PBMCs: IL-5; assay type: cell-based; settings: PBMC
Protocol: as §2

T1 sequence (Q8TD43 whole entry): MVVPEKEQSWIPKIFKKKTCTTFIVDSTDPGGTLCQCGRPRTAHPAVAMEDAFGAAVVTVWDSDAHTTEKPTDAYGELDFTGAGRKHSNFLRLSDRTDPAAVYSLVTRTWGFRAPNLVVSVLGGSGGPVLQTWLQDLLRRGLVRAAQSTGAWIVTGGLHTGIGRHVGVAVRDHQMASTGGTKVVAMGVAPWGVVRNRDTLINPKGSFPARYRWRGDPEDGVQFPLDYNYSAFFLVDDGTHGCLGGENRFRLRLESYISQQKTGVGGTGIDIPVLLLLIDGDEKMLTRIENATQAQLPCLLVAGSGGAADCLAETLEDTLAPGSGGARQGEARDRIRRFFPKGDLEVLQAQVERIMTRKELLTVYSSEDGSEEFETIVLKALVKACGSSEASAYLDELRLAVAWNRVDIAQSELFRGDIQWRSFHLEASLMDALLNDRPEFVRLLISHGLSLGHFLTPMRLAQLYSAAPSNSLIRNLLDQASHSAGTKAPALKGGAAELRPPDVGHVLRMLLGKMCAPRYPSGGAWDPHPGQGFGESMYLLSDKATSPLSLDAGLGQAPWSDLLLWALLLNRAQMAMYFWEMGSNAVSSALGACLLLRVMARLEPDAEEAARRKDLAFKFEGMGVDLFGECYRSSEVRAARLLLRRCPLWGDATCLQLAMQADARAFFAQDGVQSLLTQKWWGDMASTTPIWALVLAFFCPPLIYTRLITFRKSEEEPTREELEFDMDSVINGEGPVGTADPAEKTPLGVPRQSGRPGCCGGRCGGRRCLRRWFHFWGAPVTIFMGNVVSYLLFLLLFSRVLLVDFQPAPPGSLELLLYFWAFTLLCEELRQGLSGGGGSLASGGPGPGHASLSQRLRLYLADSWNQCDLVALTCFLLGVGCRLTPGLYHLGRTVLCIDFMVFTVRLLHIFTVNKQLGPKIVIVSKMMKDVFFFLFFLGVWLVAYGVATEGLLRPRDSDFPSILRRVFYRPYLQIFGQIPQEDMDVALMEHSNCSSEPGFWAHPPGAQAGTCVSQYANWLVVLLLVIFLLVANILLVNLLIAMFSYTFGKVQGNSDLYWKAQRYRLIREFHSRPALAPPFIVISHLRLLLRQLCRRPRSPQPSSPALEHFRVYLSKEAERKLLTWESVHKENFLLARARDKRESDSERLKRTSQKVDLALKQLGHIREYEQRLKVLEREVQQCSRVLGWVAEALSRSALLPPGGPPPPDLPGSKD

SMILES	EC50 (TRPM4)	IC50 (IL-2 production [1])	IL-2 production after IV infusion (FIG. 3) (IL-2 production [2])	IC50 (IL-2)	inhibition of ICRAC current in primary T cells compared with RBL cells (FIG. 1) [3]	IC50 (IL-4)	TNF-α production after IV infusion (FIG. 4) (TNF-α production)	IC50 (TNF-α)	IC50 (INF-γ)	IC50 (IL-10)	IC50 (GM-CSF)	IC50 (IL-13)	inhibition of Icrac in Jurkat cells [4]	IC50 (RBL cells)	IC50 (IL-5)
O=C(Nc1ccc(-c2cc(C(F)(F)F)ccc2Cl)cc1)c1cccc(F)c1F [Compound 23]	20 to 50 nM	< 100 nM	–	–	–	–	–	–	–	–	–	–	–	–	–
Cc1nnsc1C(=O)Nc1ccc(-c2cc(C(F)(F)F)ccc2C(F)(F)F)cc1 [Compound 24, 4-Methyl-[1,2,3]thiadiazole-5-carboxylic acid (2′,5′-bis-trifluoromethyl-biphenyl-4-yl)-amide]	20 to 50 nM	< 100 nM	–	–	–	–	–	–	–	–	–	–	–	–	–
COc1ccc(OC)c(-c2ccc(NC(=O)c3cccc(F)c3F)cc2)c1 [Compound 31, N-(2′,5′-Dimethoxy-biphenyl-4-yl)-2,3-difluoro-benzamide]	–	–	significantly inhibit IL-2 production	6 nM	inhibits ICRAC current equally well in primary T cells as in RBL cells	71 nM	significantly inhibit TNF-α production	68 nM	42 nM	> 1000 nM	97 nM	51 nM	> 43%	380 nM	11 nM
COc1ccc(OC)c(-c2ccc(NC(=O)c3ccncc3F)cc2)c1 [Compound 66, 3-fluoro-pyridine-4-carboxylic acid (2′,5′-dimethoxybiphenyl-4-yl)-amide]	–	< 100 nM	–	20 nM	–	445 nM	–	271 nM	88 nM	> 1000 nM	448 nM	75 nM	> 90%	430 nM	21 nM
CSc1ccccc1-c1ccc(NC(=O)c2ccncc2C)cc1 [Compound 75, 3-methyl-pyridine-4-carboxylic acid (2′-methylsulfanyl-biphenyl-4-yl)-amide]	–	< 100 nM	–	4 nM	–	103 nM	–	81 nM	23 nM	> 1000 nM	152 nM	15 nM	–	–	7 nM
